{
  "source": "patent US20140121236A1",
  "about": "“Compositions and Methods for Treating Myotonic Dystrophy Type 1” (UNIVERSITY OF SOUTHERN CALIFORNIA, priority 2012, published 2014)",
  "key": {"DM1 splicing defects": {"test_system": "DM1 splicing defects", "conditions": "literature reference 16 (Warf et al.); cited from earlier work"}, "[1]": {"test_system": "MBNL1 and MBNL2 RNA splicing in DM1 myoblasts", "experiment": "Splicing assay (RT-PCR) for RNAs from DM1 myoblasts", "type": "cell-based, human", "conditions": "50 μM, 17 hours, RT-PCR", "method": "A. Total RNA was isolated from normal (SKMC) myoblasts, untreated DM1 myoblasts and DM1 myoblasts treated with 50 μM RCN-001 or 50 μM Pentamidine for 17 hours and subjected to RT-PCR analysis using the indicated primers sets for MBNL1 and MBNL2 RNAs. GAPDH RNA was amplified in parallel as an internal control. The results of one of three experiments are shown. B. The relative levels of exon inclusion was measured by densitometry and tabulated as mean % exon inclusion +/− standard deviation.\nTreatment of DM1 myoblasts with RCN-001 is also sufficient to rescue abnormal RNA splicing. Two RNAs were selected that show abnormal splicing in DM1 myoblasts: MBNL1 and MBNL2. DM1 myoblast were treated with 50 μM RCN-001 for 17 hours after which RNA was isolated and splice variants were analyzed as previously described (20-22).\nSplicing assays for RNAs isolated from human myoblasts. DM1 patient myoblasts was treated with 50 μM of RCN-001 or Pentamidine for 17 h as described by Warf et al, 2009. Total RNA was isolated using the RNAeasy mini kit (Qiagen Inc., USA) following manufacture's protocol. cDNA was synthesized using 5 μg of total RNA using First-Strand cDNA synthesis kit (GE Healthcare). PCR amplification was carried out using 150 ng of cDNA for 35 cycles for each target RNA. The primers used for PCR amplification are as follows—\nThe relative band intensities were measured using densitometry analyses and the percent of exon inclusion was calculated as [exon inclusion/(exon inclusion+exon exclusion)]×100."}},
  "data": [
    {"smiles": "N=C(N)c1ccc(OCCCCCOc2ccc(C(=N)N)cc2)cc1", "note": "[pentamidine, reference compound]", "values": [
      {"measurement": "rescue of DM1 splicing defects shown by others", "setting": "DM1 splicing defects", "value": "partially rescue DM1 splicing defects"},
      {"measurement": "rescue of abnormal splicing of MBNL1 and MBNL2", "setting": "[1]", "value": "did not perform as well RCN-001"}
    ]}
  ]
}
